The text below walks through data of article PMC5562778 (Archives of Toxicology, 2017).

One series has as its system Caucasian liver S9. Nature of the series: Oxidation of 1′-hydroxyestragole by Caucasian liver S9 (NAD+, GSH trapping). The series is classed as in vitro ADME, human. As to the method:
(§1) Mixed gender Chinese or Caucasian liver S9 was incubated with 1′-hydroxyestragole in the presence of NAD^+ and GSH, the latter added to trap the transient 1′-oxoestragole. Formation of the 1′-oxoestragole adducts with GSH forming GS-1′-oxoestragole reflects the formation of 1′-oxoestragole (Punt et al. [2009]). […] The reactions were terminated after 10 min by the addition of 25 μL ice-cold acetonitrile. Blank incubations were performed without cofactor NAD^+. All incubations were performed in triplicate.
(§2) Secondary metabolism of 1′-hydroxyestragole includes glucuronidation, oxidation, and sulfation. The gradient of analysis of the metabolites of 1′-hydroxyestragole can be found in supporting materials 2. Table S1 can be used to track more detailed information.
(§3) Identification of the GS-1′-oxoestragole which reflects the formation of 1′-oxoestragole was done by comparing the UV spectra and retention time of the formed GSH adduct to those of GS-1′-oxoestragole identified as described previously (Punt et al. [2009]). Quantification of the GSH conjugate of 1′-oxoestragole was achieved by comparing the peak area to the calibration curve of GS-1′-oxoestragole at a wavelength of 280 nm prepared as described previously by Punt et al. ([2009], [2016]). Briefly, the calibration curve of GS-1′-oxoestragole was prepared by incubating 40 μM 1′-oxoestragole with a range of GSH concentrations. The reactions were incubated for 4 h after which maximal formation of GS-1′-oxoestragole was previously shown to be reached (Punt et al. [2009]).
(§4) Mixed gender Chinese or Caucasian liver S9 was incubated with 1'-hydroxyestragole in the presence of NAD^+ and GSH, the latter added to trap the transient 1'-oxoestragole. Formation of the 1'-oxoestragole adducts with GSH forming GS-1'-oxoestragole reflects the formation of 1'-oxoestragole (Punt et al. 2009). […] The mixtures were pre-incubated for 1 min at 37 °C, after which the reactions were started by adding the substrate 1'-hydroxyestragole at concentrations ranging from 15 to 1000 μM added from 100 times concentrated stock solutions in DMSO. The reactions were terminated after 10 min by the addition of 25 μl ice-cold acetonitrile. Under these conditions, the formation of the GSH adduct of 1'-oxoestragole was linear with time and cytosolic protein concentration (Punt et al. 2009). Blank incubations were performed without cofactor NAD^+. All incubations were performed in triplicate.
(§5) The gradient for analysis of the metabolites contains a mixture of acetonitrile and 0.1 % TFA in ultrapure water with 0.6 ml/min flow rate.

The next series has as its system Chinese liver S9. As to the kind of experiment: Oxidation of 1′-hydroxyestragole by Chinese liver S9 (NAD+, GSH trapping). The series is classed as in vitro ADME, human. As to the method: as §1, §2, §3, §4, §5
The subject of another series is Chinese liver microsomes. Nature of the series: Microsomal conversion of estragole by Chinese liver microsomes (NADPH). Conditions: for Catalytic efficiency (scaled V max / K m) / Scaled V max: formation from estragole, Chinese; for Scaled V max: scaled with microsomal protein yield 35 mg/(g tissue); for Catalytic efficiency (V max/K m × 1000) / K m / V max: formation of the metabolite from estragole, Chinese liver microsomes; for K m / V max: average ± SEM; for Catalytic efficiency for formation of the metabolite, lower in Chinese than in Caucasian samples / V max for formation of the metabolite, lower in Chinese than in Caucasian samples: in vitro, liver microsomes. As to the method:
(§6) The incubation mixtures contained (final concentrations) 3 mM NADPH and 1 mg/mL microsomal protein in 0.2 M Tris–HCl (pH 7.4). Incubations were performed for 10 min at substrate concentrations ranging from 25 to 1000 μM, after which the reaction was terminated by adding 25 μL ice-cold acetonitrile. Blank incubations were performed in the absence of the cofactor NADPH. All incubations were performed in triplicate. In the supporting materials 2, detailed information can be found (Table S1 can be used to keep track of detailed information).
(§7) Before UPLC analysis, all samples were centrifuged for 5 min at 16,000 g to precipitate microsomal proteins. Supernatant of each sample was analyzed on UPLC using a BEH C18 (1.7 μm, 2.1 × 50 mm) column with a guard column and a diode array detector (Acquity, Waters). […] Table S1 can be used to keep track of detailed information.
(§8) The apparent maximum velocity (V max) and the apparent Michaelis–Menten constant (K m) were determined by fitting the data to this equation using GraphPad Prism version 5.0 (GraphPad software, San Diego California USA).
(§9) The incubation mixtures contained (final concentrations) 3 mM NADPH and 1 mg/ml microsomal protein in 0.2 M Tris-HCl (pH 7.4). […] Incubations were performed for 10 min at substrate concentrations ranging from 25 to 1000 μM, after which the reaction was terminated by adding 25 μl ice-cold acetonitrile. […] Blank incubations were performed in the absence of the cofactor NADPH. All incubations were performed in triplicate.
The flow rate was 0.6 ml/min and the gradient started with 100 % ultrapure water.
Background: Liver microsomes are a subcellular fraction often used to study metabolism.

The test system of series [1] is Caucasian liver microsomes. Nature of the series: Microsomal conversion of estragole by Caucasian liver microsomes (NADPH). The series is classed as in vitro ADME, human. The note with it: for Catalytic efficiency (scaled V max / K m) / Scaled V max: formation from estragole, Caucasian; for Catalytic efficiency (scaled V max / K m): scaled to liver; for Scaled V max: scaled with microsomal protein yield 35 mg/(g tissue); for Catalytic efficiency (V max/K m × 1000) / K m / V max: formation of the metabolite from estragole, Caucasian liver microsomes; for K m / V max: average ± SEM. As to the method:
as §6
as §7, with “information. […] 3′-Hydroxyanethole was quantified by comparison of the peak areas of the metabolite in the chromatograms obtained at a wavelength of 206 nm to the calibration curve of the synthesized reference compound (Agharahimi and LeBel [1995]; Drinkwater et al. [1976]; Iyer et al. [2003]; Luo et al. [1992]).” for “information.”
as §8, §9
The flow rate was 0.6 ml/min and the gradient started with 100 % ultrapure water. After 1 min, the amount of acetonitrile was increased to 10 % and kept at that level for 1 min, after which the percentage of acetonitrile was increased to 35 % in 2.5 min and then increased to 100 % over 0.5 minute and kept at 100 % acetonitrile for another 1 min, and finally back to the starting conditions.

For series [2] the following is noted: ref Barter et al. [2013], cited from earlier work.
For series [3] the following is noted: PBK prediction, ref Barter et al. [2013], cited from earlier work.
Where [4] appears, read: formation from 1′-hydroxyestragole (oxidation), Caucasian liver S9.
Where [5] appears, read: formation from 1′-hydroxyestragole (oxidation), Caucasian liver S9, listed as 1′-oxoestragole.
Setting [6] is: formation from 1′-hydroxyestragole (oxidation), Chinese liver S9.
Where [7] appears, read: formation from 1′-hydroxyestragole (oxidation), Chinese liver S9, listed as 1′-oxoestragole.

Read-outs that look alike come from different tables or passages of the source.

Regarding `C=CC(=O)c1ccc(OC)cc1` [1′-Oxoestragole], the “Catalytic efficiency (V max/K m × 1000)” value in the series on Caucasian liver S9 (setting [4]) is on record as 5.4 µL/min/mg microsomal or S9 protein; in the series with Chinese liver S9 (setting [6]) it was 4.5 µL/min/mg microsomal or S9 protein. For the same molecule, the K m with Caucasian liver S9 (setting [4]) is recorded as 521 ± 265 µM; in the series on Caucasian liver S9 (setting [5]), 521 µM; in the series on Chinese liver S9 (setting [6]) it was 403 ± 137 µM; with Chinese liver S9 (setting [7]), 403 µM. The V max is 2.8 ± 0.70 nmol /min/mg microsomal or S9 protein with Caucasian liver S9 (setting [4]), 2.8 nmol /min/mg microsomal or S9 in the series with Caucasian liver S9 (setting [5]), 1.82 ± 0.28 nmol /min/mg microsomal or S9 protein with Chinese liver S9 (setting [6]) and 1.82 nmol /min/mg microsomal or S9 in the series with Chinese liver S9 (setting [7]). For the same molecule, the “Scaled V max” value in the series on Caucasian liver S9 (oxidation of 1′-hydroxyestragole, Caucasian, S9 protein yield 143 mg/(g tissue)) came to 24.0 µmol/h/g liver; in the series with Chinese liver S9 (oxidation of 1′-hydroxyestragole, Chinese, S9 protein yield 143 mg/(g tissue)) it was 15.6 µmol/h/g liver. Besides, the “Catalytic efficiency (scaled V max / K m)” value was 46.1 µL/h/g liver in the series with Caucasian liver S9 (oxidation of 1′-hydroxyestragole, Caucasian, scaled to liver) and 38.7 µL/h/g liver with Chinese liver S9 (oxidation of 1′-hydroxyestragole, Chinese, scaled to liver). In the series with Chinese liver S9 (in vitro, oxidation of 1′-hydroxyestragole, liver S9), the “Catalytic efficiencies for formation of 1′-oxoestragole, Chinese versus Caucasian” value was “similar”. For the same molecule, the “Scaled catalytic efficiencies for formation of 1′-oxoestragole, Chinese versus Caucasian” value in the series with Chinese liver S9 (scaled to liver, oxidation of 1′-hydroxyestragole) is recorded as “similar”.
Turning to `COc1ccc(/C=C/CO)cc1` [3′-Hydroxyanethole], in the series on Chinese liver microsomes (scaled to liver), the “Catalytic efficiency (scaled V max / K m)” value is recorded as 1.5 µL/h/g liver. In the series on Chinese liver microsomes, the “Scaled V max” value came to 0.7 µmol/h/g liver, the “Catalytic efficiency (V max/K m × 1000)” value is on record as 0.71 µL/min/mg microsomal or S9 protein, the K m amounted to 450 ± 219 µM and the V max is 0.32 ± 0.07 nmol /min/mg microsomal or S9 protein. Also, in the series on Chinese liver microsomes (conversion of estragole), the “Catalytic efficiency for formation of the metabolite, lower in Chinese than in Caucasian samples” value worked out at 3.2 fold and the “V max for formation of the metabolite, lower in Chinese than in Caucasian samples” value is 3.1 fold. Moreover, in series [1], the “Catalytic efficiency (scaled V max / K m)” value is 4.8 µL/h/g liver, the “Scaled V max” value is recorded as 2.1 µmol/h/g liver, the “Catalytic efficiency (V max/K m × 1000)” value is 2.3 µL/min/mg microsomal or S9 protein and the K m is recorded as 429 ± 80 µM. For the same molecule, the V max in series [1] is listed as 0.99 ± 0.08 nmol /min/mg microsomal or S9 protein.
As for `C=CCc1ccc(O)cc1` [4-Allylphenol], in the series on Chinese liver microsomes (scaled to liver), the “Catalytic efficiency (scaled V max / K m)” value came out at 2.7 µL/h/g liver. In addition, in the series on Chinese liver microsomes, the “Scaled V max” value turned out to be 0.3 µmol/h/g liver, the “Catalytic efficiency (V max/K m × 1000)” value is recorded as 1.3 µL/min/mg microsomal or S9 protein, the K m was found to be 115 ± 24 µM and the V max is given as 0.15 ± 0.01 nmol /min/mg microsomal or S9 protein. Further, in the series on Chinese liver microsomes (conversion of estragole), the “Catalytic efficiency for formation of the metabolite, lower in Chinese than in Caucasian samples” value is on record as 1.8 fold and the “V max for formation of the metabolite, lower in Chinese than in Caucasian samples” value worked out at 5.0 fold. For the same molecule, in series [1], the “Catalytic efficiency (scaled V max / K m)” value came out at 5.0 µL/h/g liver, the “Scaled V max” value is listed as 1.6 µmol/h/g liver, the “Catalytic efficiency (V max/K m × 1000)” value is listed as 2.4 µL/min/mg microsomal or S9 protein and the K m came to 308 ± 71 µM. In addition, in series [1], the V max was 0.74 ± 0.07 nmol /min/mg microsomal or S9 protein.
In the case of `COc1ccc(CC2CO2)cc1` (stereo not drawn) [Estragole-2′,3′-oxide], in the series on Chinese liver microsomes (scaled to liver), the “Catalytic efficiency (scaled V max / K m)” value worked out at 5.5 µL/h/g liver. Also, in the series on Chinese liver microsomes, the “Scaled V max” value is on record as 0.9 µmol/h/g liver, the “Catalytic efficiency (V max/K m × 1000)” value is reported as 2.6 µL/min/mg microsomal or S9 protein, the K m came out at 161 ± 17 µM and the V max is reported as 0.42 ± 0.01 nmol /min/mg microsomal or S9 protein. Moreover, in the series with Chinese liver microsomes (conversion of estragole), the “Catalytic efficiency for formation of the metabolite, lower in Chinese than in Caucasian samples” value was 4.9 fold and the “V max for formation of the metabolite, lower in Chinese than in Caucasian samples” value amounted to 4.4 fold. Besides, the “V max, lower in Chinese than in Caucasian liver incubations” value with Chinese liver microsomes (scaled kinetic constants (Table 3), conversion of estragole) was “fourfold”. The “Scaled catalytic efficiency, lower for Chinese than Caucasian liver microsomes” value in the series on Chinese liver microsomes (scaled to liver, conversion of estragole) was “fivefold”. In addition, in series [1], the “Catalytic efficiency (scaled V max / K m)” value came out at 26.6 µL/h/g liver, the “Scaled V max” value turned out to be 3.9 µmol/h/g liver, the “Catalytic efficiency (V max/K m × 1000)” value is 12.7 µL/min/mg microsomal or S9 protein and the K m is reported as 146 ± 15 µM. Further, in series [1], the V max is on record as 1.85 ± 0.06 nmol /min/mg microsomal or S9 protein.
On to `Cc1nnc2n1-c1ccc(Cl)cc1C(c1ccccc1)=NC2` [alprazolam], for which the “Experimentally observed clearance, lower in Chinese individuals than in Caucasian volunteers” value (shortened to “Experimentally observed clearance, lower”) in series [2] (intravenous) is reported as 20%; in series [2] (oral) it was 21%. Also, the “Predicted clearance, lower in Chinese than in Caucasian subjects” value (“Predicted clearance, lower” for short) in series [3] (intravenous) is 21%; in series [3] (oral) it was 22%.
Regarding `Cc1ncc2n1-c1ccc(Cl)cc1C(c1ccccc1F)=NC2` [midazolam], the figures for the “Experimentally observed clearance, lower” value in series [2] (intravenous) and in series [2] (oral) were 19% and 62%, respectively. The “Predicted clearance, lower” value in series [3] (intravenous) is given as 24%; in series [3] (oral), 17%.
Turning to `COc1ccc2[nH]c([S+]([O-])Cc3ncc(C)c(OC)c3C)nc2c1` (stereo not drawn) [omeprazole], the “Experimentally observed clearance, lower” value in series [2] (route not stated) was 75%. The “Predicted clearance, lower” value in series [3] (route not stated) is listed as 51%.
As for `CCCCNC(=O)NS(=O)(=O)c1ccc(C)cc1` [tolbutamide], in series [2] (route not stated), the “Experimentally observed clearance, lower” value is given as 2%. For the same molecule, the “Predicted clearance, lower” value in series [3] (route not stated) is listed as 25%.
